Among the test systems are COLO 205; MOLT-4; NCI-H23; SF-295; OVCAR-8; UACC-62; OVCAR-4; CAKI-1; NCI-H522; A549; HCT-15; SNB-75; NCI-H460; UACC-257; NCI-H226; SNB-19.
Holding throughout (test): NCI-60 cell line screen, 48 h

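The compound was tested at five concentrations on cells cultured in 96-well plates, with a 48-hour exposure period. Abbreviation: GI50, concentration required for 50% inhibition of growth.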 Activity calls are given as the source filed them. No stated cut-off is given here; in the data, active = GI50 up to about 1.1 µM and inactive = higher.

In the case of `Cn1c(N)c(-c2c3ccccc3nc3ccccc23)c(=O)n(C)c1=O`, the GI50 in the test with COLO 205, with MOLT-4, with NCI-H23, in the test on SF-295, in the test with OVCAR-8 and in the test on UACC-62 was > 100 µM (inactive) in each case. In addition, the GI50 was > 100 µM (inactive) in the test on OVCAR-4; > 100 µM (inactive) in the test on CAKI-1; > 100 µM (inactive) in the test on NCI-H522; > 100 µM (inactive) in the test with A549; greater than 100 µM in the test with HCT-15.
In the case of `CN(C)CCNC(=O)c1cccc2c1nc(-c1ccccc1)c1ccccc12`, the GI50 was 3.48 µM (inactive) in the test with COLO 205; 0.323 µM (active) with MOLT-4; 6.65 µM (inactive) in the test with NCI-H23; 4.67 µM (inactive) with SF-295; 4.43 µM (inactive) in the test with OVCAR-8; 6.76 µM (inactive) in the test on SNB-75. Besides, the GI50 with UACC-62 is 11.9 µM (inactive); in the test with NCI-H460 it was 0.4 µM (active); in the test with OVCAR-4 it was 5.45 µM (inactive); in the test on UACC-257 it was 1.73 µM (inactive); with NCI-H226, 2.83 µM (inactive); with CAKI-1 it was 3.74 µM (inactive). The GI50 in the test on A549 was 1.07 µM (active); with SNB-19, 11.3 µM (inactive); in the test on HCT-15 it was 2.68 µM.
Consider `O=C(Nc1cccc(NC(=O)c2cc(=O)c3ccccc3o2)n1)c1cc(=O)c2ccccc2o1`, for which the GI50 was 74.3 µM (inactive) with COLO 205; 49.4 µM (inactive) in the test with MOLT-4; 20.1 µM (inactive) with NCI-H23; > 100 µM (inactive) with OVCAR-8; 38.8 µM (inactive) in the test on SNB-75; 6.75 µM (inactive) in the test on UACC-62. The GI50 in the test with NCI-H460 was 40.4 µM (inactive); with OVCAR-4 it was 44.6 µM (inactive); in the test on UACC-257, 56.5 µM (inactive); in the test with CAKI-1, > 100 µM (inactive); in the test on NCI-H522, 15 µM (inactive); in the test with A549, 53.6 µM (inactive). For the same compound, the GI50 with SNB-19 was 68.9 µM (inactive); with HCT-15 it was 4.06 µM.
Take `Oc1ccc(O)c(-n2cccn2)c1`: the GI50 in the test with COLO 205 is 23 µM (inactive); with MOLT-4 it was 21.9 µM (inactive); in the test on NCI-H23 it was > 100 µM (inactive); in the test with SF-295, 95.1 µM (inactive); with OVCAR-8 it was 40.7 µM (inactive); in the test with SNB-75, > 100 µM (inactive). The GI50 with UACC-62 was 50.4 µM (inactive); with NCI-H460 it was > 100 µM (inactive); in the test with OVCAR-4 it was > 100 µM (inactive); in the test on CAKI-1, 19.1 µM (inactive); in the test on NCI-H522 it was 16.6 µM (inactive); with A549 it was > 100 µM (inactive). Further, the GI50 in the test with SNB-19 was > 100 µM (inactive); in the test with HCT-15 it was greater than 100 µM.
Take `COc1ccc(CNc2nc3ccccc3nc2-c2cccs2)cc1OC`: the GI50 with COLO 205 was 9.98 µM (inactive); in the test with MOLT-4, 12.6 µM (inactive); in the test on NCI-H23, 25.2 µM (inactive); in the test on SF-295, 42.4 µM (inactive); in the test with OVCAR-8, 34 µM (inactive); in the test with NCI-H460, 20.8 µM (inactive). The GI50 with UACC-257 was 23.3 µM (inactive); with NCI-H226, 68.5 µM (inactive); with A549, 16.2 µM (inactive); in the test on SNB-19, > 100 µM (inactive); in the test with HCT-15 it was 34.8 µM.
As to `O=C(O)c1cc(-c2ccccc2O)nc2ccccc12`, the GI50 in the test on COLO 205, with MOLT-4, with NCI-H23, with SF-295, in the test with OVCAR-8 and in the test with SNB-75 was > 100 µM (inactive) in each case. The GI50 in the test with UACC-62, in the test with NCI-H460, in the test with OVCAR-4, in the test on UACC-257, in the test with CAKI-1 and with NCI-H522 was > 100 µM (inactive) each time. Besides, the GI50 in the test with A549 was > 100 µM (inactive); in the test with SNB-19, > 100 µM (inactive); in the test on HCT-15 it was greater than 100 µM.
Take `CC1=C2CCCC2=C/C(=N/Nc2ccc([N+](=O)[O-])cc2[N+](=O)[O-])CC1`: the GI50 with COLO 205 is > 100 µM (inactive); with MOLT-4, > 100 µM (inactive); in the test on NCI-H23, > 100 µM (inactive); in the test on SF-295, > 100 µM (inactive); with OVCAR-8, > 100 µM (inactive); in the test with SNB-75 it was 45.2 µM (inactive). Further, the GI50 in the test on UACC-62, in the test on NCI-H460, in the test with OVCAR-4, with UACC-257, in the test on NCI-H226 and in the test with CAKI-1 was > 100 µM (inactive) each time. Also, the GI50 in the test with NCI-H522, in the test on A549 and in the test with SNB-19 was > 100 µM (inactive) each time.
For `CCOC(=O)CC1NC(=O)CS1` (stereo unspecified), the GI50 in the test with COLO 205 is 4.39 µM (inactive); in the test on MOLT-4 it was > 100 µM (inactive); in the test on NCI-H23 it was > 100 µM (inactive); with SF-295 it was > 100 µM (inactive); in the test on OVCAR-8, > 100 µM (inactive); in the test on SNB-75, > 100 µM (inactive). Moreover, the GI50 was > 100 µM (inactive) in the test on UACC-62; 60.4 µM (inactive) with NCI-H460; > 100 µM (inactive) in the test with OVCAR-4; > 100 µM (inactive) with UACC-257; 12.6 µM (inactive) in the test with NCI-H226; > 100 µM (inactive) with CAKI-1. Further, the results for the GI50 in the test on A549, in the test with SNB-19 and in the test on HCT-15 were > 100 µM (inactive), > 100 µM (inactive) and 20 µM, respectively.
As to `C#CCN(C)C(=O)N(CC#C)N=O`, the GI50 in the test on COLO 205, in the test on MOLT-4, in the test with NCI-H23, with SF-295, with OVCAR-8 and with SNB-75 was > 100 µM (inactive) each time. Also, the GI50 with UACC-62, with NCI-H460, in the test on OVCAR-4, with UACC-257, in the test with NCI-H522 and with A549 was > 100 µM (inactive) in each case. In addition, the GI50 was > 100 µM (inactive) in the test with SNB-19 and greater than 100 µM in the test with HCT-15.
Regarding `CCc1cc(Cc2cc(CC)c(NC(=O)C3=CC(=O)CC(c4ccc(OC)cc4)O3)c(CC)c2Cl)c(Cl)c(CC)c1NC(=O)C1=CC(=O)CC(c2ccc(OC)cc2)O1` (stereo unspecified), the GI50 was 17.8 µM (inactive) in the test on COLO 205; 31.8 µM (inactive) in the test on MOLT-4; 17.1 µM (inactive) with NCI-H23; 19.8 µM (inactive) in the test with SF-295; 26.5 µM (inactive) with OVCAR-8; 20 µM (inactive) in the test with SNB-75. The GI50 in the test with UACC-62 was 23.8 µM (inactive); in the test on NCI-H460 it was 17.7 µM (inactive); in the test with OVCAR-4 it was 25.2 µM (inactive); with UACC-257, 16 µM (inactive); with NCI-H226, 24.8 µM (inactive); in the test with CAKI-1 it was 27.7 µM (inactive). Further, the GI50 was 23.9 µM (inactive) with A549, 21.4 µM (inactive) in the test on SNB-19 and 25.6 µM in the test on HCT-15.
Regarding `Cc1ccc(S(=O)(=O)n2cc(/C=C/C#N)c(/C=C/C#N)c2)cc1`, the GI50 in the test with COLO 205 is > 100 µM (inactive); in the test on MOLT-4 it was 29.3 µM (inactive); in the test with NCI-H23, 96.6 µM (inactive); in the test with SF-295 it was 55.5 µM (inactive); in the test on OVCAR-8 it was > 100 µM (inactive); with SNB-75 it was 29.8 µM (inactive). Besides, the GI50 in the test on UACC-62 was 48.9 µM (inactive); in the test with NCI-H460 it was > 100 µM (inactive); in the test with OVCAR-4, 59.4 µM (inactive); in the test with UACC-257, 82 µM (inactive); in the test with NCI-H522, > 10 µM (inactive); in the test with A549, 63.8 µM (inactive). The GI50 in the test on SNB-19 is 57.9 µM (inactive); in the test on HCT-15, 88.9 µM.
For the compound `Cc1ccc(C(=O)NC(C)C)cc1/N=N/N(C)C`, the GI50 in the test with NCI-H23, with SF-295, with OVCAR-8, with UACC-62, with NCI-H460 and in the test on OVCAR-4 was > 100 µM (inactive) in each case. Moreover, the GI50 is > 100 µM (inactive) with UACC-257; > 100 µM (inactive) in the test with CAKI-1; > 100 µM (inactive) with NCI-H522; > 100 µM (inactive) with A549; > 100 µM (inactive) with SNB-19; greater than 100 µM with HCT-15.
As to `NC(=O)c1cccc(C2OC(COP(=O)(O)O)C(O)C2O)c1` (stereo unspecified), the GI50 in the test on COLO 205 was > 50 µM (inactive); in the test with MOLT-4, 10.9 µM (inactive); in the test on NCI-H23 it was > 50 µM (inactive); with SF-295 it was 39.1 µM (inactive); in the test with OVCAR-8, 16 µM (inactive); in the test with SNB-75 it was 14.4 µM (inactive). Further, the GI50 in the test on UACC-62 is > 50 µM (inactive); with NCI-H460, > 50 µM (inactive); in the test on UACC-257, > 50 µM (inactive); in the test with NCI-H226 it was 32.9 µM (inactive); with CAKI-1 it was > 50 µM (inactive); in the test on NCI-H522, > 50 µM (inactive). The values for the GI50 in the test on A549, in the test with SNB-19 and in the test on HCT-15 were > 50 µM (inactive), > 50 µM (inactive) and 27.4 µM, respectively.
On to `CC(=O)O[C@H]1CCN2C(=O)C=CC(OCc3ccccc3)C12` (stereo partly specified), for which the GI50 in the test with COLO 205, in the test with MOLT-4, in the test with NCI-H23, in the test on SF-295, with OVCAR-8 and in the test with SNB-75 was > 100 µM (inactive) throughout. In addition, the GI50 with UACC-62, in the test with NCI-H460, with OVCAR-4, in the test with UACC-257, in the test on NCI-H226 and in the test on CAKI-1 was > 100 µM (inactive) throughout. Besides, the results for the GI50 in the test on A549 and in the test on HCT-15 were > 100 µM (inactive) and greater than 100 µM, respectively.
As to `CC12CC[C@@H](C(C)(C)O)C1[C@@H](O)CC1(C)C2CCC2[C@@]3(C)CC[C@H](O)C(C)(C)C3C(O)C[C@]21C` (stereo partly specified), the GI50 was 15.6 µM (inactive) in the test on COLO 205; 4.07 µM (inactive) with MOLT-4; 16.1 µM (inactive) in the test on NCI-H23; 18.3 µM (inactive) in the test on SF-295; 16.5 µM (inactive) in the test on OVCAR-8; 15.6 µM (inactive) in the test with UACC-62. Further, the GI50 is 15.3 µM (inactive) with NCI-H460; 13.1 µM (inactive) in the test with OVCAR-4; > 10 µM (inactive) with UACC-257; 11.5 µM (inactive) in the test on A549; 21.1 µM (inactive) with SNB-19; 11.5 µM in the test on HCT-15.

For the origin of these results see ChEMBL document CHEMBL1201862, “PubChem BioAssay data set” (2004).
